Where “and” joins values, the source holds several entries; their conditions need not be identical. Equal entries are not always repeated. Toxic doses and inconclusive results are not listed. Rule as the data show it: active = T/C of 150% or more; inactive = T/C below 125%.
Tested on: L1210 leukemia ip in BDF1 mice, survival T/C
Test: NCI In Vivo Anticancer Drug Screen. Data for tumor model L1210 Leukemia (intraperitoneal) in B6D2F1 (BDF1) mice
Details: endpoint: mean survival time, higher = longer survival
How it was run: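 Transplantable tumor model; survival measured in treated vs vehicle control mice. Value = treated/control.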

[1] = dose: 100.0 mg/kg/injection, schedule: Q01DX001 (ip), vehicle: carboxymethylcellulose (CMC)
[2] = dose: 200.0 mg/kg/injection, schedule: Q01DX001 (ip), vehicle: carboxymethylcellulose (CMC)
[3] = dose: 400.0 mg/kg/injection, schedule: Q01DX001 (ip), vehicle: carboxymethylcellulose (CMC)
[4] = dose: 100.0 mg/kg/injection, schedule: Q01DX009 (ip), vehicle: saline with Tween-80
[5] = dose: 100.0 mg/kg/injection, schedule: Q04DX003 (ip), vehicle: saline with Tween-80
[6] = dose: 200.0 mg/kg/injection, schedule: Q01DX009 (ip), vehicle: saline with Tween-80
[7] = dose: 200.0 mg/kg/injection, schedule: Q04DX003 (ip), vehicle: saline with Tween-80
[8] = dose: 400.0 mg/kg/injection, schedule: Q04DX003 (ip), vehicle: saline with Tween-80
[9] = dose: 50.0 mg/kg/injection, schedule: Q01DX009 (ip), vehicle: Klucel (hydroxypropylcellulose) (HPC)
[10] = dose: 100.0 mg/kg/injection, schedule: Q01DX009 (ip), vehicle: Klucel (hydroxypropylcellulose) (HPC)
[11] = dose: 100.0 mg/kg/injection, schedule: Q04DX003 (ip), vehicle: Klucel (hydroxypropylcellulose) (HPC)
[12] = dose: 200.0 mg/kg/injection, schedule: Q01DX009 (ip), vehicle: Klucel (hydroxypropylcellulose) (HPC)
[13] = dose: 200.0 mg/kg/injection, schedule: Q04DX003 (ip), vehicle: Klucel (hydroxypropylcellulose) (HPC)
[14] = dose: 400.0 mg/kg/injection, schedule: Q01DX009 (ip), vehicle: Klucel (hydroxypropylcellulose) (HPC)
[15] = dose: 400.0 mg/kg/injection, schedule: Q04DX003 (ip), vehicle: Klucel (hydroxypropylcellulose) (HPC)
[16] = dose: 100.0 mg/kg/injection, schedule: Q01DX001 (ip), vehicle: saline
[17] = dose: 200.0 mg/kg/injection, schedule: Q01DX001 (ip), vehicle: saline
[18] = dose: 400.0 mg/kg/injection, schedule: Q01DX001 (ip), vehicle: saline
[19] = dose: 50.0 mg/kg/injection, schedule: Q01DX009 (ip), vehicle: saline with Tween-80
[20] = dose: 100.0 mg/kg/injection, schedule: Q04DX003 (ip), vehicle: saline
[21] = dose: 200.0 mg/kg/injection, schedule: Q04DX003 (ip), vehicle: saline
[22] = dose: 400.0 mg/kg/injection, schedule: Q04DX003 (ip), vehicle: saline

Measured: T/C

O=C1/C(=N/O)CCCc2ccccc21
inactive: [1] 103 % of control | [2] 97 % of control | [3] 103 % of control

O=C(Cn1ccc(O)cc1=O)c1ccco1
inactive: [4] 108 % of control | [5] 96 % of control | [6] 104 % of control | [7] 94 % of control | dose: 400.0 mg/kg/injection, schedule: Q01DX009 (ip), vehicle: saline with Tween-80 101 % of control | [8] 97 % of control

O=c1oc2ccccc2c(O)c1Cc1c(O)c2ccccc2oc1=O
inactive: dose: 12.5 mg/kg/injection, schedule: Q01DX009 (ip), vehicle: Klucel (hydroxypropylcellulose) (HPC) 99 % of control | dose: 25.0 mg/kg/injection, schedule: Q01DX009 (ip), vehicle: Klucel (hydroxypropylcellulose) (HPC) 86 % of control | [9] 86 % of control and 92 % of control

O=C(NCCCCCCNC(=O)N(O)C12CC3CC(CC(C3)C1)C2)N(O)C12CC3CC(CC(C3)C1)C2
inactive: dose: 100.0 mg/kg/injection, schedule: Q01DX001 (ip), vehicle: Klucel (hydroxypropylcellulose) (HPC) 95 % of control | dose: 200.0 mg/kg/injection, schedule: Q01DX001 (ip), vehicle: Klucel (hydroxypropylcellulose) (HPC) 90 % of control | dose: 400.0 mg/kg/injection, schedule: Q01DX001 (ip), vehicle: Klucel (hydroxypropylcellulose) (HPC) 90 % of control

CCOC(=O)C1CC2C=CC1C2 (stereo not given)
inactive: [10] 106 % of control | [11] 111 % of control | [12] 101 % of control | [13] 100 % of control | [14] 103 % of control | [15] 105 % of control

CNC1(c2ccccc2)CC2CCC(C2)C1O (stereo not given)
inactive: [16] 98 % of control | [11] 101 % of control | [17] 106 % of control | [13] 104 % of control | [18] 101 % of control | [15] 108 % of control

OCc1cnc[nH]1
inactive: dose: 3.0 mg/kg/injection, schedule: Q04DX002 (ip), vehicle: saline 123 % of control | dose: 6.0 mg/kg/injection, schedule: Q04DX002 (ip), vehicle: saline 97 % of control | dose: 12.0 mg/kg/injection, schedule: Q04DX002 (ip), vehicle: saline 94 % of control | dose: 25.0 mg/kg/injection, schedule: Q04DX002 (ip), vehicle: saline 97 % of control and 121 % of control | dose: 50.0 mg/kg/injection, schedule: Q04DX002 (ip), vehicle: saline 105 % of control

CC(=O)Nc1ccc(/C=N/NC(=O)CNC(=O)Nc2cccc(Cl)c2)cc1
inactive: dose: 12.5 mg/kg/injection, schedule: Q01DX009 (ip), vehicle: saline with Tween-80 95 % of control | dose: 25.0 mg/kg/injection, schedule: Q01DX009 (ip), vehicle: saline with Tween-80 95 % of control | [19] 87 % of control and 91 % of control

Cc1ccc2ccccc2c1OC(C)C(=O)O (stereo not given)
inactive: [19] 108 % of control | [4] 95 % of control | dose: 100.0 mg/kg/injection, schedule: Q04DX003 (ip), vehicle: alcohol 95 % of control | [6] 113 % of control | dose: 200.0 mg/kg/injection, schedule: Q04DX003 (ip), vehicle: alcohol 93 % of control

O=C(O)c1ccc(CCCCl)cc1
inactive: dose: 12.5 mg/kg/injection, schedule: Q01DX001 (ip), vehicle: Klucel (hydroxypropylcellulose) (HPC) 98 % of control | dose: 25.0 mg/kg/injection, schedule: Q01DX001 (ip), vehicle: Klucel (hydroxypropylcellulose) (HPC) 103 % of control | dose: 50.0 mg/kg/injection, schedule: Q01DX001 (ip), vehicle: Klucel (hydroxypropylcellulose) (HPC) 94 % of control

CCN(CC)CCOC(=O)c1[nH]cnc1/N=N/N(C)C1CCCCC1
inactive: dose: 100.0 mg/kg/injection, schedule: Q01DX001 (ip), vehicle: other 104 % of control | dose: 200.0 mg/kg/injection, schedule: Q01DX001 (ip), vehicle: other 93 % of control

COc1ccc(C2CCc3cc4c(cc3/C2=N/OC(C)=O)OCO4)cc1OC (stereo not given)
inactive: [10] 105 % of control | [11] 102 % of control | [12] 97 % of control | [13] 101 % of control | [14] 92 % of control | [15] 101 % of control

CC(C)(O)C(O)c1ccccc1 (stereo not given)
inactive: [16] 103 % of control | dose: 100.0 mg/kg/injection, schedule: Q01DX009 (ip), vehicle: saline 98 % of control | [20] 97 % of control | [17] 101 % of control | dose: 200.0 mg/kg/injection, schedule: Q01DX009 (ip), vehicle: saline 93 % of control | [21] 97 % of control | [18] 95 % of control | [22] 100 % of control

CN(C)c1ccc(N=[N+]=[N-])cc1
inactive: dose: 100.0 mg/kg/injection, schedule: Q04DX002 (ip), vehicle: saline with Tween-80 98 % of control | dose: 200.0 mg/kg/injection, schedule: Q04DX002 (ip), vehicle: saline with Tween-80 95 % of control | dose: 400.0 mg/kg/injection, schedule: Q04DX002 (ip), vehicle: saline with Tween-80 98 % of control

CN(C)S(=O)(=O)c1ccc(NC(=O)OC2CCCC2)cc1
inactive: [1] 93 % of control | [2] 98 % of control | [3] 98 % of control

CC(=O)Oc1c(C(C)(C)C)cc(C)cc1C(C)(C)C
inactive: [9] 100 % of control | [10] 100 % of control | [12] 103 % of control

O=C1OC(=O)C2C1C=C(c1ccccc1)C1C3C=CC(C4C(=O)OC(=O)C34)C21 (stereo not given)
inactive: dose: 50.0 mg/kg/injection, schedule: Q01DX001 (ip), vehicle: saline 98 % of control | [16] 101 % of control | [17] 104 % of control | [18] 106 % of control

COc1cc(C(=O)NN2C(N)=NC(N)=NC2(C)C)cc(OC)c1OC
inactive: dose: 100.0 mg/kg/injection, schedule: Q04DX003 (ip), vehicle: saline sonified 105 % of control | dose: 200.0 mg/kg/injection, schedule: Q04DX003 (ip), vehicle: saline sonified 101 % of control | dose: 400.0 mg/kg/injection, schedule: Q04DX003 (ip), vehicle: saline sonified 106 % of control

O=C1OC(=C(Br)Br)C2C3C=CC(CC3)C12 (stereo not given)
inactive: [20] 95 % of control | [21] 98 % of control | [22] 98 % of control

Cn1cnc2ncnn2c1=S
inactive: dose: 50.0 mg/kg/injection, schedule: Q01DX009 (ip), vehicle: saline 114 % of control | [20] 103 % of control | [21] 105 % of control

CCOC(=O)/C(C#N)=C1/C=C(N)CCC1
inactive: [1] 98 % of control | [2] 94 % of control | [3] 100 % of control

Oc1ccccc1OCCOCCOc1ccccc1O
inactive: dose: 100.0 mg/kg/injection, schedule: Q04DX002 (ip), vehicle: other 90 % of control

CCCCCC(NC(=O)CCl)C(=O)O (stereo not given)
inactive: [10] 91 % of control | [12] 96 % of control | [14] 92 % of control

CC(C)c1cccc(O)c(=O)c1
inactive: [5] 95 % of control | [7] 103 % of control

OC(/C=C/c1ccccc1)CC(O)(C(F)(F)F)C(F)(F)F (stereo not given)
inactive: [5] 103 % of control | [7] 110 % of control | [8] 110 % of control

O=S(=O)(F)c1ccc(Cl)cc1
inactive: [5] 101 % of control | [7] 89 % of control

C[n+]1ccccc1C(=O)O (tested in a mixture with another compound)
inactive: [20] 101 % of control | [21] 98 % of control

O=C(O)c1c(Cl)n(-c2ccccc2)c2ccccc12
inactive: dose: 50.0 mg/kg/injection, schedule: Q04DX002 (ip), vehicle: Klucel (hydroxypropylcellulose) (HPC) 101 % of control | dose: 100.0 mg/kg/injection, schedule: Q04DX002 (ip), vehicle: Klucel (hydroxypropylcellulose) (HPC) 104 % of control | dose: 200.0 mg/kg/injection, schedule: Q04DX002 (ip), vehicle: Klucel (hydroxypropylcellulose) (HPC) 93 % of control

Source: PubChem BioAssay AID248 (DTP/NCI, 2004)
